According to US20090011410A1, “METHOD FOR TAILORING ADMINISTRATION OF DRUGS BY QUANTITATION OF MRNA” (priority 2004, published 2009):

Legend:
p21 mRNA [1] = assay: drug-induced p21 mRNA expression in whole blood of leukemia and lymphoma patients; format: cell-based, human
p21 mRNA [2] = assay: drug-induced p21 mRNA expression in whole blood of healthy adults; format: cell-based, human; conditions: for p21 mRNA expression: healthy leukocytes, 2 hours at 37° C. (FIG. 1); for kinetics of p21 induction / levels of p21 mRNA upon stimulation: 0-8 hours at 37° C., 20 μM BLM
Excerpt: Blood was obtained from healthy adults and from two leukemic non-Hodgkin's malignant lymphoma patients. U937, KG-1, and Jurkat cells were obtained from American Type Culture Collection (ATCC, Manassas, Va.), and maintained in RPMI 1640 supplemented with 10% fetal calf serum. Of these, U937 cells are a human histiocytic lymphoma cell line, KG-1 cells are a human bone marrow myelogenous leukemia cell line, and Jurkat cells are a human T-cell lymphoblast-like, leukemia derived cell line. […] For human experiments, blood aliquots were stimulated with various anti-cancer drugs at 37° C. for 2 hours, then both p21 and BAX mRNA were measured. The anti-cancer drugs used in this study were clinical drugs, and the concentration of each drug was adjusted to typical blood levels 3-6 hours after intravenous administration.
The mRNA and cDNA were prepared from whole blood. In brief, home-made 96-well filterplates were placed over collection plates, and 150 μl 5 mM Tris, pH 7.4, was applied. Following centrifugation at 120×g for 1 min at 4° C., 50 μl of blood samples were applied to each well and immediately centrifuged at 120×g for 2 min at 4° C., followed by washing of each well with 300 μl PBS once with centrifugation at 2000×g for 5 min at 4° C. Then, 60 μl stock lysis buffer, containing for example 0.5% N-Lauroylsarcosine, 4×SSC, 10 mM Tris HCl, pH 7.4, 1 mM EDTA, 0.1% IGEPAL CA-630, and 1.791 M guanidine thiocyanate, supplemented with 1% 2-mercaptoethanol (Bio Rad, Hercules, Calif., USA), 0.5 mg/ml proteinase K (Pierce, Rockford, Ill., USA), 0.1 mg/ml salmon sperm DNA (5 Prime Eppendorf/Brinkmann, Westbury, N.Y., USA), 0.1 mg/ml E. coli tRNA (Sigma), a cocktail of 10 mM each of the specific reverse primers shown in Table 1, and standard RNA34 oligonucleotides, were applied to the filterplates, followed by incubation at 37° C. for 10 min. The filterplates were then placed over oligo(dT)-immobilized microplates (GenePlate, RNAture), and centrifuged at 2000×g for 5 min at 4° C. Following overnight storage at 4° C., the microplates were washed with 100 μl plain lysis buffer 3 times, followed by 150 μl of wash buffer (0.5 M NaCl, 10 mM Tris, pH 7.4, 1 mM EDTA) 3 times at 4° C. The cDNA was directly synthesized in each well by adding 30 μl buffer containing 1× RT-butter, 1.25 mM each of dNTP, 4 units rRNasin, and 80 units of MMLV reverse transcriptase (Promega) (without primers), and incubation at 37° C. for 2 hours. The specific primer-primed cDNA existed in solution, and oligo(dT)-primed cDNA stayed immobilized in the microplate. For TaqMan PCR (FIGS. 1, 3, 4), the resultant 4 μl cDNA solution was directly transferred to 384-well PCR plates, to which 5 μl of TaqMan universal master mix (ABI) and 1 μl oligonucleotide cocktail (15 μM each of forward and reverse primer, and 3-6 μM TaqMan probe) were applied, and PCR was conducted in PRISM 7900HT (ABI), with one cycle of 95° C. for 10 min followed by 45 cycles of 95° C. for 30 sec, 55° C. for 30 sec, and 60° C. for 1 min. For SYBR Green PCR (see FIG. 6), cDNA was diluted 3-4 fold in water, and 4 μl cDNA solution was directly transferred to 384-well PCR plates, to which 5 μl of a master mix (BioRad, Hercules, Calif.) and 1 μl of oligonucleotide cocktail (15 μM each of forward and reverse primer) were applied, and PCR was conducted in PRISM 7900HT (ABI), with one cycle of 95° C. for 10 min followed by 45 cycles of 95° C. for 30 sec and 60° C. for 1 min. Each gene was amplified in separate wells. The Ct was determined by analytical software (SDS, ABI).
In 8-well strip microtubes, 1.4 μl of 50× concentrations of drugs or controls (phosphate buffered saline (PBS) or DMSO) were added, and stored at −20° C. until use. […] Seventy μl of fresh heparinized whole blood was added into each well in triplicate, and incubated at 37° C. for 2-8 hours with the cap closed. For radiation treatment, blood was stimulated at designated doses using cesium-137.

[3] = heparinized whole blood, 100 μM VP-16 (FIG. 5B)

Row | Compound | p21 mRNA induction (p21 mRNA [1]; leukemic lymphoma patient 2, 2 hours at 37° C., drug concentrations (FIG. 3)) | p21 induction (p21 mRNA [2]; 10 μM VP-16, 2 hours at 37° C. (FIG. 9A)) | p21 expression (p21 mRNA [2]; 100 μM VP-16, 2 hours at 37° C. (FIG. 9A)) | p21 mRNA expression (p21 mRNA [2]; 10 μM etoposide) | p21 mRNA expression (p21 mRNA [2]; 100 μM etoposide) | kinetics of p21 induction (p21 mRNA [2]; [3]) | levels of p21 mRNA upon stimulation (p21 mRNA [2]; [3]) | peak of transient p21 induction (p21 mRNA [2]; [3]) [h] | BLM-induced p21 responses (ΔCt) compared with healthy donors (p21 mRNA [1]; 1 μM BLM, 2 hours at 37° C., 13 leukemia and lymphoma patients vs 27 healthy donors, p=0.000002 (FIG. 15)) | concentration at which significant induction of p21 was observed (p21 mRNA [2]; 0-20 μM BLM, 4 hours at 37° C. (FIG. 7)) | p21 induction (p21 mRNA [2]; BLM at concentrations as low as 0.2 μM, 2 hours at 37° C., all cases (FIG. 10A))
1 | COc1cc([C@@H]2c3cc4c(cc3[C@@H](O[C@@H]3O[C@@H]5CO[C@@H](C)O[C@H]5[C@H](O)[C@H]3O)[C@H]3COC(=O)[C@H]23)OCO4)cc(OC)c1O [VP-16, etoposide] | induced | failed to induce p21 in many cases | majority of individuals exhibited increased p21 expression | no significant p21 mRNA expression | expressed significantly | transient induction | significantly increased | 2 to 4 |  |  | 
2 | bleomycin [BLM] |  |  |  |  |  | increased continuously for 8 hours | significantly increased |  | less than those of healthy control | more than 0.1 VM | induced
